Patent US9850278B2, “Synthetic anti-inflammatory peptides and use thereof” (CARMEL-HAIFA UNIVERSITY ECONOMIC CORP., priority 2013, dated 2017)
“Also recorded” adds a separate entry of the source.

Columns and labels:
[1] = test system: IL-6; assay: IL-6 secretion by U937-derived human macrophages, supernatant ELISA; assay type: cell-based; conditions: for IL-6 secretion, effect of peptide (Example 2, FIG. 4C): peptide 1-1000 μM 24 hrs, then LPS 100 ng/ml 24 hours, FKE effect at low concentrations (1-10 μM), others compared with FKE
Method: (§1) U937 monocytic cells were cultured in 1 ml culture media (RPMI 1640, Biological industries, Beit Haemek), supplemented with 10% Fetal Calf Serum (FCS), 1% pen strep (PS) and 0.04% β-mercaptoethanol) and seeded in 24 well plates (250,000 cells/well). The monocytes underwent differentiation to macrophages with PMA (50 ng/ml) for 48 Hours in a humidified atmosphere (7.5% CO2 at 37° C.). Then the cells were washed using preheated (37° C.) culture medium and synthetic peptides (FKE, SEQ ID NO: 1, or FKD, SEQ ID NO: 3, 0.1-1000 μM) were added to the cells for 24-48 hours. After 24 hours, untreated or peptide-treated cells were activated with lipopolysaccharide (LPS-stimulated, 100 ng/ml for 24 hours). After the indicated incubations, cell free supernatants were collected and their content of IL-10, TGF-β and IL-6 was determined by standard ELISA.
(§2) The results are presented in FIGS. 1-3 and summarized in Table 1 below (effect considered significant if ±30% of control):
(§3) U937 monocytic cells were cultured and underwent differentiation to macrophages as described above in Example 1. The cells were then incubated for 24 hrs in the presence of synthetic peptides, at 1-1000 μM: FKE (SEQ ID NO: 1), FKECHLA (SEQ ID NO: 21), FKECH (SEQ ID NO: 4), EKF or YKE (SEQ ID NO: 2). Control cells were left untreated. After 24 hours, untreated or peptide-treated cells were activated with lipopolysaccharide (LPS, 100 ng/ml for 24 hours). Following activation with LPS, cell free supernatants were collected and their content of IL-10, TGF-β, IL-6 and TNF-α was determined by standard ELISA.

[2] = test system: TNF-α; assay: TNF-α secretion by LPS-activated U937-derived human macrophages, supernatant ELISA; assay type: cell-based; conditions: peptide 1-1000 μM 24 hrs, then LPS 100 ng/ml 24 hours; FKE effect at low concentrations (1-10 μM); others compared with FKE
Method: as §3

[3] = test system: bovine mammary gland epithelial lined cells (BMEC); conditions: reported by Komine et al.; BMEC named for the bovine peptides; cited from earlier work
[4] = test system: IL-10; assay: IL-10 secretion by U937-derived human macrophages, supernatant ELISA; assay type: cell-based; conditions: for IL-10 secretion, effect of peptide (Example 2, FIG. 4A): peptide 1-1000 μM 24 hrs, then LPS 100 ng/ml 24 hours, FKE effect at low concentrations (1-10 μM), others compared with FKE; for IL-10 secretion, effect of peptide: significant if ±30% of control
Method: as §1, §2, §3

[5] = test system: TGF-β; assay: TGF-β secretion by U937-derived human macrophages, supernatant ELISA; assay type: cell-based; conditions: for TGF-β secretion, effect of peptide (Example 2, FIG. 4B): peptide 1-1000 μM 24 hrs, then LPS 100 ng/ml 24 hours, FKE effect at low concentrations (1-10 μM), others compared with FKE
Method: as §1, §2, §3

[6] = LPS-stimulated macrophages (peptide 24 hrs, then LPS 100 ng/ml 24 hrs)
[7] = Non-stimulated, 24 hrs, peptide at 1000 μM
[8] = Non-stimulated, 48 hrs, peptide 0.1-1000 μM
[9] = peptide at low concentrations (1-10 μM)

Substance: FKECHLA [known bovine lactoferrin-derived synthetic peptide, excluded from Formula I]
- IL-6 secretion, effect of peptide (Example 2, FIG. 4C) [1]: reproduced the effects
- TNF-α secretion, effect of peptide (Example 2, FIG. 4D) [2]: reproduced the effects
- induction of pro-inflammatory cytokines and chemokines (TNF-α, IL-6, IL-8 and MCP-1) [3]: inactive

Substance: GQKDLLFKDSAI [positions 295-307 of human lactoferrin, Komine et al]
- induction of pro-inflammatory cytokines and chemokines (TNF-α, IL-6, IL-8 and MCP-1) [3]: induction

Substance: FKECH
- IL-10 secretion, effect of peptide (Example 2, FIG. 4A) [4]: less active than FKE
- TGF-β secretion, effect of peptide (Example 2, FIG. 4B) [5]: less active than FKE
- IL-6 secretion, effect of peptide (Example 2, FIG. 4C) [1]: less active than FKE
- TNF-α secretion, effect of peptide (Example 2, FIG. 4D) [2]: pronounced activity in inhibiting

Substance: phenylalanine-lysine-aspartic acid [FKD]
- IL-10 secretion, effect of peptide [4, 6]: decreased; also recorded: Decrease (max at
- IL-10 secretion, peptide concentration of maximal effect ([4]; LPS-stimulated, 24 hrs): 100 µM
- IL-10 secretion, effect of peptide ([4]; Non-stimulated macrophages, 24 hrs incubation, peptide 0.1-1000 μM): Decrease (max at
- IL-10 secretion, peptide concentration of maximal effect ([4]; Non-stimulated, 24 hrs): 1 µM
- IL-10 secretion, peptide concentration of maximal effect ([4]; Non-stimulated, 48 hrs): 1000 µM
- TGF-β secretion, peptide concentration of maximal effect ([5]; LPS-stimulated, 24 hrs): 10 µM
- TGF-β secretion, peptide concentration of maximal effect ([5]; Non-stimulated, 24 hrs): 1 µM
- TGF-β secretion, peptide concentration of maximal effect ([5]; Non-stimulated, 48 hrs): 10 µM
- IL-6 secretion, effect of peptide [1, 6]: increased; also recorded: Increase (all conc.)
- IL-6 secretion, effect of peptide [1, 7]: Increase (at
- IL-6 secretion, peptide concentration at which increase starts ([1]; Non-stimulated, 48 hrs): at 0.1 μM)
- IL-6 secretion, effect of peptide [1, 8]: Increase
- IL-6 secretion increase relative to FKE ([1]; Non-stimulated, 48 hrs, fold of FKE): 4 fold

Substance: FKDCHLA [positions 243-249 of human lactoferrin, Komine et al]
- induction of pro-inflammatory cytokines and chemokines (TNF-α, IL-6, IL-8 and MCP-1) [3]: induction

Substance: Phe-Lys-Glu (FKE)
- IL-10 secretion, effect of peptide [4, 6]: increased
- IL-10 secretion, peptide concentration of maximal effect ([4]; LPS-stimulated, 24 hrs): 1 µM
- IL-10 secretion, peptide concentration of maximal effect ([4]; Non-stimulated, 24 hrs): 10 µM
- IL-10 secretion, peptide concentration of maximal effect ([4]; Non-stimulated, 48 hrs): 0.1 µM
- IL-10 secretion, effect of peptide (Example 2, FIG. 4A) [4]: induces
- IL-10 secretion, effect of peptide (Example 1) [4, 9]: induces
- TGF-β secretion, peptide concentration of maximal effect ([5]; LPS-stimulated, 24 hrs): 100 µM
- TGF-β secretion, effect of peptide ([5]; Non-stimulated macrophages, 24 hrs incubation, peptide 0.1-1000 μM, significant if ±30% of control): No effect
- TGF-β secretion, peptide concentration of maximal effect ([5]; Non-stimulated, 48 hrs): 10 µM
- TGF-β secretion, effect of peptide (Example 2, FIG. 4B) [5]: inhibits
- TGF-β secretion, effect of peptide (Example 1) [5, 9]: inhibits
- IL-6 secretion, effect of peptide [1, 6]: No Increase
- IL-6 secretion, effect of peptide [1, 7]: Increase (at
- IL-6 secretion, peptide concentration at which increase starts ([1]; Non-stimulated, 48 hrs): at 0.1 μM)
- IL-6 secretion, effect of peptide [1, 8]: Increase (starts
- IL-6 secretion, effect of peptide (Example 2, FIG. 4C) [1]: inhibits
- TNF-α secretion, effect of peptide (Example 2, FIG. 4D) [2]: inhibits

Substance: Glu-Lys-Phe [EKF]
- IL-10 secretion, effect of peptide (Example 2, FIG. 4A) [4]: did not reproduce these effects
- TGF-β secretion, effect of peptide (Example 2, FIG. 4B) [5]: did not reproduce these effects
- IL-6 secretion, effect of peptide (Example 2, FIG. 4C) [1]: did not reproduce these effects
- TNF-α secretion, effect of peptide (Example 2, FIG. 4D) [2]: moderate inhibition

Substance: GQRDLFKDSAL [bovine counterpart of pep4, Komine et al]
- induction of pro-inflammatory cytokines and chemokines (TNF-α, IL-6, IL-8 and MCP-1) [3]: induced

Substance: Tyr-Lys-Glu (YKE) [synthetic tripeptide, from the corresponding position in murine lactoferrin]
- IL-10 secretion, effect of peptide (Example 2, FIG. 4A) [4]: did not affect
- IL-6 secretion, effect of peptide (Example 2, FIG. 4C) [1]: reproduced these effects
- TNF-α secretion, effect of peptide (Example 2, FIG. 4D) [2]: better inhibition
